Measurements as given in US20230085307A1, “PYRIDAZINONE COMPOUND AND HERBICIDE” (NISSAN CHEMICAL CORPORATION, priority 2019, published 2023).

Columns and labels:
[1] = tested on: southern crabgrass; experiment: Test Example 4: herbicidal effect by soil treatment (Table 19, symbol F); assay type: in vivo, southern crabgrass (Digitaria ciliaris); details: amount of applied herbicide 320 g/ha
Outline: (§1)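 In this soil treatment, the formulated compound reached the seeds only through the soil: seeds were buried about 1.5 cm deep in sterilized diluvial soil, then the diluted emulsion was sprayed over the surface. After three weeks at 25° C. to 30° C. in a greenhouse, effects were graded on criteria from an earlier test.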

[2] = tested on: oval-leafed pondweed; experiment: Test Example 1: herbicidal activity, application before weed generation under submerged conditions (Table 16, symbol C); assay type: in vivo, oval-leafed pondweed (Monochoria vaginalis); details: 320 g/ha applied herbicide
Outline: (§2)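 Alluvial soil was flooded to 4 cm depth, weed seeds were sown mixed and 2.5-leaf rice seedlings were transplanted. On sowing day, the compound's emulsion, diluted in water to a set dose, was applied to the water surface. Plants grew at 25–30 °C and were scored 0–5 after three weeks.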

[3] = tested on: windgrass; experiment: Test Example 4: herbicidal effect by soil treatment (Table 19, symbol L); assay type: in vivo, windgrass (Apera spica-venti); details: amount of applied herbicide 320 g/ha
Outline: as §1

[4] = tested on: barnyard grass; experiment: Test Example 4: herbicidal effect by soil treatment (Table 19, symbol H); assay type: in vivo, barnyard grass (Echinochloa crus-galli); details: amount of applied herbicide 320 g/ha
Outline: as §1

[5] = tested on: lambsquarters; experiment: Test Example 5: herbicidal effect by foliage application, plastic box (Table 20, symbol O); assay type: in vivo, lambsquarters (Chenopodium album); details: foliage application, 320 g/ha, evaluated three weeks after application
Outline: (§3)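 Plants were sown into sterilized diluvial soil under about 1.5 cm cover and kept in a greenhouse at 25° C. to 30° C. Fourteen days on, foliage received an even spray of the diluted emulsion. Herbicidal or crop effect was judged three weeks afterwards.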

[6] = tested on: green foxtail; experiment: Test Example 4: herbicidal effect by soil treatment (Table 19, symbol G); assay type: in vivo, green foxtail (Setaria viridis); details: amount of applied herbicide 320 g/ha
Outline: as §1

[7] = tested on: southern crabgrass; experiment: Test Example 5: herbicidal effect by foliage application, plastic box (Table 20, symbol F); assay type: in vivo, southern crabgrass (Digitaria ciliaris); details: foliage application, 320 g/ha, evaluated three weeks after application
Outline: as §3

[8] = tested on: velvetleaf; experiment: Test Example 4: herbicidal effect by soil treatment (Table 19, symbol M); assay type: in vivo, velvetleaf (Abutilon theophrasti); details: amount of applied herbicide 320 g/ha
Outline: as §1

[9] = tested on: windgrass; experiment: Test Example 5: herbicidal effect by foliage application, plastic box (Table 20, symbol L); assay type: in vivo, windgrass (Apera spica-venti); details: foliage application, 320 g/ha, evaluated three weeks after application
Outline: as §3

[10] = tested on: blackgrass; experiment: Test Example 5: herbicidal effect by foliage application, plastic box (Table 20, symbol J); assay type: in vivo, blackgrass (Alopecurus myosuroides); details: foliage application, 320 g/ha, evaluated three weeks after application
Outline: as §3

[11] = tested on: Italian ryegrass; experiment: Test Example 5: herbicidal effect by foliage application, plastic box (Table 20, symbol K); assay type: in vivo, Italian ryegrass (Lolium multiflorum); details: foliage application, 320 g/ha, evaluated three weeks after application
Outline: as §3

[12] = tested on: lambsquarters; experiment: Test Example 4: herbicidal effect by soil treatment (Table 19, symbol O); assay type: in vivo, lambsquarters (Chenopodium album); details: amount of applied herbicide 320 g/ha
Outline: as §1

[13] = tested on: late watergrass; experiment: Test Example 1: herbicidal activity, application before weed generation under submerged conditions (Table 16, symbol A); assay type: in vivo, late watergrass (Echinochloa oryzicola); details: 320 g/ha applied herbicide
Outline: as §2

[14] = tested on: barnyard grass; experiment: Test Example 5: herbicidal effect by foliage application, plastic box (Table 20, symbol H); assay type: in vivo, barnyard grass (Echinochloa crus-galli); details: foliage application, 320 g/ha, evaluated three weeks after application
Outline: as §3

[15] = tested on: Italian ryegrass; experiment: Test Example 4: herbicidal effect by soil treatment (Table 19, symbol K); assay type: in vivo, Italian ryegrass (Lolium multiflorum); details: amount of applied herbicide 320 g/ha
Outline: as §1

[16] = tested on: blackgrass; experiment: Test Example 4: herbicidal effect by soil treatment (Table 19, symbol J); assay type: in vivo, blackgrass (Alopecurus myosuroides); details: amount of applied herbicide 320 g/ha
Outline: as §1

[17] = tested on: redroot pigweed; experiment: Test Example 5: herbicidal effect by foliage application, plastic box (Table 20, symbol N); assay type: in vivo, redroot pigweed (Amaranthus retroflexus); details: foliage application, 320 g/ha, evaluated three weeks after application
Outline: as §3

[18] = tested on: Chinese sprangletop; experiment: Test Example 3: herbicidal effect by foliage application, Wagner pot (Table 18, symbol D); assay type: in vivo, chinese sprangletop (Leptochloa chinensis); details: amount of applied herbicide 320 g/ha
Outline: (§4)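 Plants were sown in alluvial soil held under 0.1–0.5 cm standing water and grown 14 days in a greenhouse at 25–30 °C. An emulsifiable formulation, water-diluted to the set dose, was then sprayed onto the foliage, and effects were scored three weeks later using previously defined criteria.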

[19] = tested on: rice flat sedge; experiment: Test Example 3: herbicidal effect by foliage application, Wagner pot (Table 18, symbol E); assay type: in vivo, rice flat sedge (Cyperus iria); details: amount of applied herbicide 320 g/ha
Outline: as §4

[20] = tested on: Japanese bulrush; experiment: Test Example 1: herbicidal activity, application before weed generation under submerged conditions (Table 16, symbol B); assay type: in vivo, Japanese bulrush (Schoenoplectus juncoides); details: 320 g/ha applied herbicide
Outline: as §2

[21] = tested on: redroot pigweed; experiment: Test Example 4: herbicidal effect by soil treatment (Table 19, symbol N); assay type: in vivo, redroot pigweed (Amaranthus retroflexus); details: amount of applied herbicide 320 g/ha
Outline: as §1

[22] = tested on: wild oat; experiment: Test Example 5: herbicidal effect by foliage application, plastic box (Table 20, symbol I); assay type: in vivo, wild oat (Avena fatua); details: foliage application, 320 g/ha, evaluated three weeks after application
Outline: as §3

[23] = tested on: chickweed; experiment: Test Example 4: herbicidal effect by soil treatment (Table 19, symbol P); assay type: in vivo, common chickweed (Stellaria media); details: amount of applied herbicide 320 g/ha
Outline: as §1

[24] = tested on: persian speedwell; experiment: Test Example 4: herbicidal effect by soil treatment (Table 19, symbol R); assay type: in vivo, Persian speedwell (Veronica persica); details: amount of applied herbicide 320 g/ha
Outline: as §1

[25] = tested on: persian speedwell; experiment: Test Example 5: herbicidal effect by foliage application, plastic box (Table 20, symbol R); assay type: in vivo, Persian speedwell (Veronica persica); details: foliage application, 320 g/ha, evaluated three weeks after application
Outline: as §3

[26] = tested on: barnyard grass; experiment: Test Example 3: herbicidal effect by foliage application, Wagner pot (Table 18, symbol H); assay type: in vivo, barnyard grass (Echinochloa crus-galli); details: amount of applied herbicide 320 g/ha
Outline: as §4

[27] = tested on: velvetleaf; experiment: Test Example 5: herbicidal effect by foliage application, plastic box (Table 20, symbol M); assay type: in vivo, velvetleaf (Abutilon theophrasti); details: foliage application, 320 g/ha, evaluated three weeks after application
Outline: as §3

[28] = tested on: wild oat; experiment: Test Example 4: herbicidal effect by soil treatment (Table 19, symbol I); assay type: in vivo, wild oat (Avena fatua); details: amount of applied herbicide 320 g/ha
Outline: as §1

[29] = tested on: green foxtail; experiment: Test Example 5: herbicidal effect by foliage application, plastic box (Table 20, symbol G); assay type: in vivo, green foxtail (Setaria viridis); details: foliage application, 320 g/ha, evaluated three weeks after application
Outline: as §3

[30] = tested on: chickweed; experiment: Test Example 5: herbicidal effect by foliage application, plastic box (Table 20, symbol P); assay type: in vivo, common chickweed (Stellaria media); details: foliage application, 320 g/ha, evaluated three weeks after application
Outline: as §3

| SMILES | herbicidal effect on F: southern crabgrass [1] | Herbicidal effect on C: oval-leafed pondweed (grade 0-5) [2] | herbicidal effect on L: windgrass [3] | herbicidal effect on H: barnyard grass [4] | herbicidal effect on O: lambsquarters (criteria 0-5) [5] | herbicidal effect on G: green foxtail [6] | herbicidal effect on F: southern crabgrass (criteria 0-5) [7] | herbicidal effect on M: velvetleaf [8] | herbicidal effect on L: windgrass (criteria 0-5) [9] | herbicidal effect on J: blackgrass (criteria 0-5) [10] | herbicidal effect on K: Italian ryegrass (criteria 0-5) [11] | herbicidal effect on O: lambsquarters [12] | Herbicidal effect on A: late watergrass (grade 0-5) [13] | herbicidal effect on H: barnyard grass (criteria 0-5) [14] | herbicidal effect on K: Italian ryegrass [15] | herbicidal effect on J: blackgrass [16] | herbicidal effect on N: redroot pigweed (criteria 0-5) [17] | herbicidal effect on D: Chinese sprangletop [18] | herbicidal effect on E: rice flat sedge [19] | Herbicidal effect on B: Japanese bulrush (grade 0-5) [20] | other results |
| --- | --- | --- | --- | --- | --- | --- | --- | --- | --- | --- | --- | --- | --- | --- | --- | --- | --- | --- | --- | --- | --- |
| CCCC(=O)Oc1c(C)nn(C)c(=O)c1-c1c(-c2cccc(OC(C)(C)C)c2)sc2ccc(F)cc12 [2-224] | 0 (Herbicidal rate of 5% or less (almost no effect)) | 0 (Herbicidal rate of 5% or less (almost no effect)) | 0 (Herbicidal rate of 5% or less (almost no effect)) | 0 (Herbicidal rate of 5% or less (almost no effect)) | 3 (Herbicidal rate of 40% or more and less than 70%) | 0 (Herbicidal rate of 5% or less (almost no effect)) | 0 (Herbicidal rate of 5% or less (almost no effect)) | 0 (Herbicidal rate of 5% or less (almost no effect)) | 0 (Herbicidal rate of 5% or less (almost no effect)) | 0 (Herbicidal rate of 5% or less (almost no effect)) | 0 (Herbicidal rate of 5% or less (almost no effect)) | 0 (Herbicidal rate of 5% or less (almost no effect)) | 5 (Herbicidal rate of 90% or more (almost completely withered)) | 3 (Herbicidal rate of 40% or more and less than 70%) | 0 (Herbicidal rate of 5% or less (almost no effect)) | 0 (Herbicidal rate of 5% or less (almost no effect)) | 2 (Herbicidal rate of 20% or more and less than 40%) | 4 (Herbicidal rate of 70% or more and less than 90%) | 3 (Herbicidal rate of 40% or more and less than 70%) | 0 (Herbicidal rate of 5% or less (almost no effect)) | herbicidal effect on N: redroot pigweed [21]: 0 (Herbicidal rate of 5% or less (almost no effect)); herbicidal effect on I: wild oat (criteria 0-5) [22]: 0 (Herbicidal rate of 5% or less (almost no effect)); herbicidal effect on P: chickweed [23]: 0 (Herbicidal rate of 5% or less (almost no effect)); herbicidal effect on R: persian speedwell [24]: 4 (Herbicidal rate of 70% or more and less than 90%); herbicidal effect on R: persian speedwell (criteria 0-5) [25]: 5 (Herbicidal rate of 90% or more (almost completely withered)); herbicidal effect on H: barnyard grass [26]: 4 (Herbicidal rate of 70% or more and less than 90%); herbicidal effect on M: velvetleaf (criteria 0-5) [27]: 3 (Herbicidal rate of 40% or more and less than 70%); herbicidal effect on I: wild oat [28]: 0 (Herbicidal rate of 5% or less (almost no effect)); herbicidal effect on G: green foxtail (criteria 0-5) [29]: 1 (Herbicidal rate of 5% or more and less than 20%); herbicidal effect on P: chickweed (criteria 0-5) [30]: 5 (Herbicidal rate of 90% or more (almost completely withered)) |
| CCCC(=O)Oc1c(C)nn(C)c(=O)c1-c1c(-c2cccc(C(F)(F)F)c2)sc2ccc(F)cc12 [2-232] | 0 (Herbicidal rate of 5% or less (almost no effect)) | 0 (Herbicidal rate of 5% or less (almost no effect)) | 0 (Herbicidal rate of 5% or less (almost no effect)) | 0 (Herbicidal rate of 5% or less (almost no effect)) | 3 (Herbicidal rate of 40% or more and less than 70%) | 0 (Herbicidal rate of 5% or less (almost no effect)) | 0 (Herbicidal rate of 5% or less (almost no effect)) | 0 (Herbicidal rate of 5% or less (almost no effect)) | 1 (Herbicidal rate of 5% or more and less than 20%) | 0 (Herbicidal rate of 5% or less (almost no effect)) | 0 (Herbicidal rate of 5% or less (almost no effect)) | 0 (Herbicidal rate of 5% or less (almost no effect)) | 3 (Herbicidal rate of 40% or more and less than 70%) | 0 (Herbicidal rate of 5% or less (almost no effect)) | 0 (Herbicidal rate of 5% or less (almost no effect)) | 0 (Herbicidal rate of 5% or less (almost no effect)) | 5 (Herbicidal rate of 90% or more (almost completely withered)) | 5 (Herbicidal rate of 90% or more (almost completely withered)) | 5 (Herbicidal rate of 90% or more (almost completely withered)) | 0 (Herbicidal rate of 5% or less (almost no effect)) | herbicidal effect on N: redroot pigweed [21]: 0 (Herbicidal rate of 5% or less (almost no effect)); herbicidal effect on I: wild oat (criteria 0-5) [22]: 0 (Herbicidal rate of 5% or less (almost no effect)); herbicidal effect on P: chickweed [23]: 3 (Herbicidal rate of 40% or more and less than 70%); herbicidal effect on R: persian speedwell [24]: 3 (Herbicidal rate of 40% or more and less than 70%); herbicidal effect on R: persian speedwell (criteria 0-5) [25]: 5 (Herbicidal rate of 90% or more (almost completely withered)); herbicidal effect on H: barnyard grass [26]: 4 (Herbicidal rate of 70% or more and less than 90%); herbicidal effect on M: velvetleaf (criteria 0-5) [27]: 5 (Herbicidal rate of 90% or more (almost completely withered)); herbicidal effect on I: wild oat [28]: 0 (Herbicidal rate of 5% or less (almost no effect)); herbicidal effect on G: green foxtail (criteria 0-5) [29]: 0 (Herbicidal rate of 5% or less (almost no effect)); herbicidal effect on P: chickweed (criteria 0-5) [30]: 5 (Herbicidal rate of 90% or more (almost completely withered)) |
